“And” between values parts separate entries of the source, which are not always exact repeats. Equal values may be shown once. Read-outs that look alike come from different tables or passages of the source.
Key:
[1] = test system: thr^34 -phosphorylated DARPP-32; experiment: phospho-DARPP-32 immunoblot in mouse neostriatal slices; type: cell-based; conditions: for increase in the level of phosphorylated DARPP-32 over the already high basal levels: Ca^2+ -free/EGTA medium; for increase in the level of phosphorylated DARPP-32: vs untreated slices
Procedure: (§1) Preparation and incubation of striatal slices. Male C57BL/6 mice (5-8 weeks old) were sacrificed by decapitation. The brains of the decapitated mice were rapidly removed and placed in ice-cold, oxygenated Krebs-HCO3 -buffer (124 mM NaCl, 4 mM KCl, 26 mM NaHCO3, 1.5 mM CaCl2, 1.25 mM KH2 PO4, 1.5 mM MgSO4 and 10 mM D-glucose, pH 7.4). Coronal slices (350 μm) were prepared using a vibratome. Striatum and nucleus accumbens were dissected from the slices in ice-cold Krebs-HCO3 - buffer. Each slice was placed in a polypropylene incubation tube with 2 ml of fresh Krebs-HCO3 - buffer containing adenosine deaminase (10 μg/ml). The slices were preincubated at 30° C. under constant oxygenation with 95 % O2 /5 % CO2 for 60 minutes. The buffer was replaced with fresh Krebs-HCO3 -buffer after 30 minutes of preincubation. In some experiments, slices were incubated in Ca^2+ -free/EGTA medium (124 mM NaCl, 4 mM KCl, 26 mM NaHCO3, 1.25 mM KH2 PO4, 3.0 mM MgSO4, 10 mM D-glucose and I mM EGTA, pH 7.4) for 20 minutes after 60 minutes of preincubation in Krebs-HCO3 - buffer. Slices were treated with drugs as specified in each experiment.
(§2) Immunoblotting. Frozen tissue samples were sonicated in boiling 1% SDS and boiled for an additional 10 minutes. Small aliquots of the homogenate were retained for protein determination by the BCA protein assay method (Pierce) using bovine serum albumin as a standard. […] The membranes were immunoblotted using a monoclonal antibody (mAb-23; 1:750 dilution) [Snyder et al., (1992)], which is a phosphorylation state-specific antibody raised against a DARPP-32 peptide containing phospho-thr^34, the site phosphorylated by cAMP-dependent protein kinase. A monoclonal antibody (C24-5a; 1:7500 dilution) generated against DARPP-32 (Hemmings and Greengard, 1986), which is not phosphorylation state-specific, was used to estimate the total amount of DARPP-32 in samples.
(§3) Data were analyzed by Student's t -test with significance defined as p<0.05.

DARPP-32 phosphorylation = DARPP-32 phosphorylation in rat neostriatal slices (FIG. 9); type: cell-based; conditions: forskolin 10 μM plus FK506 at various concentrations
Procedure: FIG. 9. FK506 increases the level of DARPP-32 phosphorylation in neostriatal slices. Rat neostriatal slices were incubated in the absence (control) or presence of forskolin (10 μM) alone; or forskolin and FK506 using the various concentrations shown.

[2] = prepulse inhibition (PPI) of the startle reflex in mice; type: in vivo
Excerpt: Chambers that are used to assess startle are housed in a sound-attenuated room with a 60 dB(A) ambient noise level. Such chambers consist of a Plexiglass cylinder 8.2 cm in diameter resting on a 12.5×25.5 cm Plexiglass frame within a ventilated enclosure. Acoustic noise bursts are presented via a speaker mounted 24 cm above the animal. A piezoelectric accelerometer mounted below the Plexiglass frame detects and transduces motion within the cylinder. The delivery of acoustic stimuli is controlled by a microcomputer. Startle amplitude is defined as the average of 100 readings. Background noise and all acoustic stimuli are delivered through a speaker (frequency response between 0.5 and 16 Khz) in a chamber. The test session consists of giving: (i) a startle stimulus alone (a 118 dB [A] 40 ms broad band burst); or (ii) no stimulation; or (iii) a startle stimulus preceded 100 ms earlier by a prepulse (a 70 dB [A] 20 ms broad band burst). The amount of PPI is expressed as the percentage decrease in the startle response caused by the presentation of the prepulse. The amount of PPI is calculated using the following equation: [(startle amplitude caused by pulse alone minus startle amplitude caused by pulse preceded by prepulse)/(startle amplitude caused by pulse alone)]×100.

[3] = Begley et al., 1990; cited from earlier work
[4] = treatment with a D1 antagonist, Karlsson et al., 1995; cited from earlier work
[5] = test system: thr^34 -phosphorylated DARPP-32; experiment: phospho-DARPP-32 immunoblot in nucleus accumbens slices; type: cell-based, mouse
Procedure: as §1, §2, §3

For `C=C[C@@]1(C)CC(=O)[C@]2(O)[C@@]3(C)[C@@H](O)CCC(C)(C)[C@@H]3[C@H](O)[C@H](OC(C)=O)[C@@]2(C)O1` [forskolin], the “increase in the level of phosphorylated DARPP-32 over the already high basal levels” value [1] was 2.04±0.22 fold and the “increase in the level of phosphorylated DARPP-32 after 5 minutes” value ([1]; forskolin 10 μM, 8-bromo-cAMP 1 mM) was 20 fold.

With `C=CC[C@@H]1/C=C(\C)C[C@H](C)C[C@H](OC)[C@H]2O[C@@](O)(C(=O)C(=O)N3CCCC[C@H]3C(=O)O[C@H](/C(C)=C/[C@@H]3CC[C@@H](O)[C@H](OC)C3)[C@H](C)[C@@H](O)CC1=O)[C@H](C)C[C@@H]2OC` [FK506] the “effect on the level of DARPP-32 phosphorylation” value (DARPP-32 phosphorylation) was “increases DARPP-32 phosphorylation in a dose-dependent manner”, the “effect on the reduction of PPI mediated by quinpirole” value ([2]; D2 agonist and FK506 concurrently, FK506 intravenously 1 to 1000 nM) was “blocks the reduction of PPI mediated by quinpirole” and the “effect on the degree of PPI, FK506 alone” value ([2]; FK506 alone) was “can increase the degree of PPI”. The “crossing of the blood-brain barrier” value [3] was “effectively crosses the blood-brain barrier”.

With `CCCN1CCC[C@@H]2Cc3n[nH]cc3C[C@H]21` [quinpirole] the “effect on the basal level of phosphorylated DARPP-32” value (“effect on the basal level” for short) [1] was “decreased”.

For `CN1CCc2cc(Cl)c(O)cc2[C@H]2c3ccccc3CC[C@@H]21` [SCH39166], the “effect on the symptoms of schizophrenia” value [4] is listed as “does not improve but actually worsens the symptoms of schizophrenia”.

For `CCN1CCC[C@H]1CNC(=O)c1c(O)c(Cl)cc(Cl)c1OC` [raclopride], the “effect on the quinpirole-induced decrease in SKF82526-stimulated DARPP-32 phosphorylation” value ([5]; raclopride 1 μM) was “abolished”, the “effect on the quinpirole-induced decrease in basal DARPP-32 phosphorylation” value ([5]; raclopride 1 μM) was “abolished” and the “effect on the basal level” value ([5]; raclopride alone 1 μM) was “small increase”. For the same compound, the “effect on the basal level” value [1] was “slightly increased”, the “effect on the ability of quinpirole to decrease the SKF82526-stimulated level of phosphorylated DARPP-32” value ([1]; raclopride 1 μM) was “dramatically reduced” and the “effect on the ability of quinpirole to decrease the basal level of phosphorylated DARPP-32” value ([1]; raclopride 1 μM, quinpirole (100 μM)) was “blocked”.

In the case of `CN[C@H](CC(=O)O)C(=O)O` [NMDA], the “effect on the SKF82526-stimulated level of phosphorylated DARPP-32” value [1] is reported as “antagonized” and the “decrease in SKF 82526-induced phosphorylation of DARPP-32” value ([1]; discussion of Table 2 data) is reported as 100%.

For `NCCc1ccc(O)c(O)c1` [dopamine], the “increase in the level of phosphorylated DARPP-32” value ([1]; dopamine 100 μM plus nomifensine 10 μM) was 6.64±1.36 fold.

For `CN1CCc2cc(Cl)c(O)cc2[C@@H](c2ccccc2)C1` [SCH23390], the “effect on the SKF82526-induced DARPP-32 phosphorylation (D1 antagonist)” value [1] was “abolished”.

With `C[C@]12N[C@H](Cc3ccccc31)c1ccccc12` [MK801] the “effect on the D2 receptor (quinpirole) decrease of DARPP-32 phosphorylation” value [1] was “not blocked”, the “effect on the basal level” value [1] was “increased” and the “level of phospho-DARPP-32, MK801 (+)” value [1] was 0.247 ± 0.044. For the same compound, the “effect on the NMDA antagonism of the SKF82526-induced increase of phosphorylated DARPP-32” value ([1]; MK801 100 μM, NMDA 100 μM) was “abolished”.

For `NC1=N[C@H](O)[C@H]2[C@H]3O[C@]4(O)O[C@@H]([C@@H](O)[C@@]2(N1)[C@@H]4O)[C@]3(O)CO` [TTX, tetrodotoxin], the “effect on the SKF82526-stimulated level of phosphorylated DARPP-32” value [1] was “increased”, the “effect on the basal level” value [1] was “increased” and the “effect on the effect of quinpirole on DARPP-32 phosphorylation” value [1] was “failed to reduce”. The “level of phospho-DARPP-32, TTX (+)” value [1] was 1.000.

In the case of `C/C=C(/C)C(=O)O[C@H]1C(C)=C2[C@H]([C@@H]1OC(=O)CCCCCCC)[C@@](C)(OC(C)=O)C[C@H](OC(=O)CCC)[C@@]1(O)[C@H]2OC(=O)[C@@]1(C)O` [thapsigargin], the “reduction of the level of phosphorylated DARPP-32 seen with SKF82526” value ([1]; thapsigargin 5 μM added 5 min before SKF82526 1 μM for 5 minutes) is reported as 46.9±7.7%.

In the case of `Oc1ccc(C2CNCCc3c2cc(O)c(O)c3Cl)cc1` (centres unmarked) [SKF82526], the “increase in the level of phosphorylated DARPP-32” value ([5]; SKF82526 1 μM) is reported as “about 7 fold”, the “level of phospho-DARPP-32, TTX (+)” value [1] is reported as 5.492 ± 0.780 and the “level of phospho-DARPP-32, TTX (-)” value [1] is reported as 3.282 ± 0.575. The “increase in the level of phosphorylated DARPP-32 over the already high basal levels” value [1] was 1.55±0.12 fold, the EC50 ([1]; Mus musculus, dose-dependent increase, read-out: half-maximal effect on DARPP-32 phosphorylation) was roughly 100 nM and the “increase in the level of phosphorylated DARPP-32” value ([1]; SKF82526 1 μM alone) was 5.37±0.99 fold and 9.36±2.06 fold. For the same compound, the “level of phospho-DARPP-32, Cyclosporin A (-), 5 min” value ([1]; Table 1A, SKF82526 1 μM for 5 min, normalized to control) was 7.14 ± 0.97, the “level of phospho-DARPP-32, Cyclosporin A (-), 30 min” value ([1]; Table 1A, SKF82526 1 μM for 30 min, normalized to control) was 3.07 ± 0.66 and the “level of phospho-DARPP-32, Cyclosporin A (+), 5 min” value ([1]; Table 1A, cyclosporin A 5 μM preincubation 60 min, SKF82526 1 μM for 5 min, normalized to control) was 31.6 ± 2.8. For the same compound, the “level of phospho-DARPP-32, Cyclosporin A (+), 30 min” value ([1]; Table 1A, cyclosporin A 5 μM preincubation 60 min, SKF82526 1 μM for 30 min, normalized to control) was 28.0 ± 3.1, the “level of phospho-DARPP-32, Cyclosporin A (+)” value ([1]; Table 1C, cyclosporin A 5 μM 60 min, quinpirole 1 μM 5 min preincubation, SKF82526 1 μM 5 min, normalized to control) was 21.1 ± 2.3 and the “level of phospho-DARPP-32, Cyclosporin A (-)” value ([1]; Table 1C, quinpirole 1 μM 5 min preincubation, SKF82526 1 μM 5 min, normalized to control) was 10.61 ± 2.28. The “level of phospho-DARPP-32, MK801 (+)” value ([1]; Table 2, MK801 100 μM from 0 min, NMDA 100 μM or quinpirole 1 μM at 10 min, SKF82526 1 μM at 15 min of 20 min, normalized to SKF82526 alone) was 1.115 ± 0.078 and the “level of phospho-DARPP-32, MK801 (-)” value ([1]; Table 2, NMDA 100 μM or quinpirole 1 μM at 10 min, SKF82526 1 μM at 15 min of 20 min, normalized to SKF82526 alone) was 1.000.

— patent US6013621A, “Method of treating psychosis and/or hyperactivity” (The Rockfeller University, priority 1997, dated 2000)
